Measured values as given in patent US20070276141A1, “Preparation of Pharmaceutical Salts of [1,4] - Bipiperidine” (priority 2003, published 2007).

Assay: Relative stability of solid forms
Assay type: physicochemical
Details: test conditions not given

In the case of `Cc1ccc(S(=O)(=O)NC(=O)N2CCC(N3CCC(Oc4ccc(Cl)c(Cl)c4)CC3)CC2)cc1` [Hydrate Form A, N-[[4-(3,4-dichlorophenoxy)[1,4′-bipiperidin]-1′-yl]carbonyl]-4-methyl-benzenesulfonamide], the “stability compared with other solid forms of the sodium salt” value was “more stable than Hydrate Forms B and D and Solvated Form E”.
